In ChEMBL document CHEMBL1201862, “PubChem BioAssay data set” (2004):
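Interpolation was linear, between the two tested concentrations surrounding the appropriate level; five concentrations were tested over 48 hours in 96-well plates. GI50 is the concentration that inhibits growth by half.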 The source made the active and inactive calls. Cut-off read from the data, not from the text of the source: active = GI50 up to about 1.1 µM and inactive = higher.

Key:
Experiment in all cases: growth of human tumour cells (NCI), 48 h
HCT-116 = test system: HCT-116
OVCAR-4 = test system: OVCAR-4
NCI-H460 = test system: NCI-H460
RXF 393 = test system: RXF 393
SF-539 = test system: SF-539
IGROV-1 = test system: IGROV-1
NCI-H522 = test system: NCI-H522
SK-MEL-28 = test system: SK-MEL-28
Hs-578T = test system: Hs-578T
DU-145 = test system: DU-145
EKVX = test system: EKVX
HOP-92 = test system: HOP-92
786-0 = test system: 786-0
MOLT-4 = test system: MOLT-4
UACC-257 = test system: UACC-257
A498 = test system: A498
HT-29 = test system: HT-29
SR = test system: SR
CAKI-1 = test system: CAKI-1
A549 = test system: A549
SK-MEL-2 = test system: SK-MEL-2
HL-60 = test system: HL-60
NCI-H23 = test system: NCI-H23
CCRF-CEM = test system: CCRF-CEM
MDA-N = test system: MDA-N
PC-3 = test system: PC-3
SN12C = test system: SN12C
U-251 = test system: U-251
RPMI-8226 = test system: RPMI-8226
SK-MEL-5 = test system: SK-MEL-5
MDA-MB-435 = test system: MDA-MB-435
LOX IMVI = test system: LOX IMVI
OVCAR-3 = test system: OVCAR-3
Malme-3M = test system: Malme-3M
COLO 205 = test system: COLO 205
MDA-MB-231 = test system: MDA-MB-231
MCF7 = test system: MCF7
SNB-19 = test system: SNB-19
SK-OV-3 = test system: SK-OV-3
SF-295 = test system: SF-295
SF-268 = test system: SF-268
SW-620 = test system: SW-620
TK-10 = test system: TK-10
T47D = test system: T47D
BT-549 = test system: BT-549
ACHN = test system: ACHN
HCC 2998 = test system: HCC 2998
HCT-15 = test system: HCT-15
UO-31 = test system: UO-31
HOP-62 = test system: HOP-62
OVCAR-5 = test system: OVCAR-5
K562 = test system: K562
KM12 = test system: KM12
UACC-62 = test system: UACC-62
NCI-H226 = test system: NCI-H226
M14 = test system: M14
OVCAR-8 = test system: OVCAR-8
SNB-75 = test system: SNB-75
NCI/ADR-RES = test system: NCI/ADR-RES

## FC(F)(F)c1ccc(/N=N/N2CCCC2)cc1
HCT-116
  GI50: > 100 µM (inactive)
OVCAR-4
  GI50: > 100 µM (inactive)
NCI-H460
  GI50: 63 µM (inactive)
RXF 393
  GI50: > 100 µM (inactive)
SF-539
  GI50: > 100 µM (inactive)
IGROV-1
  GI50: > 100 µM (inactive)
NCI-H522
  GI50: > 100 µM (inactive)
SK-MEL-28
  GI50: > 100 µM (inactive)
Hs-578T
  GI50: > 100 µM (inactive)
DU-145
  GI50: > 100 µM (inactive)
EKVX
  GI50: > 100 µM (inactive)
HOP-92
  GI50: 80 µM (inactive)
786-0
  GI50: > 100 µM (inactive)
MOLT-4
  GI50: > 100 µM (inactive)
UACC-257
  GI50: > 100 µM (inactive)
A498
  GI50: > 100 µM (inactive)
HT-29
  GI50: > 100 µM (inactive)
SR
  GI50: 68.7 µM (inactive)
CAKI-1
  GI50: > 100 µM (inactive)
A549
  GI50: > 100 µM (inactive)
SK-MEL-2
  GI50: > 100 µM (inactive)
HL-60
  GI50: > 100 µM (inactive)
NCI-H23
  GI50: 65.8 µM (inactive)
CCRF-CEM
  GI50: > 100 µM (inactive)
MDA-N
  GI50: > 100 µM (inactive)
PC-3
  GI50: > 100 µM (inactive)
SN12C
  GI50: > 100 µM (inactive)
U-251
  GI50: > 100 µM (inactive)
RPMI-8226
  GI50: > 100 µM (inactive)
SK-MEL-5
  GI50: 42.6 µM (inactive)
MDA-MB-435
  GI50: > 100 µM (inactive)
LOX IMVI
  GI50: > 100 µM (inactive)
OVCAR-3
  GI50: > 100 µM (inactive)
Malme-3M
  GI50: > 100 µM (inactive)
COLO 205
  GI50: > 100 µM (inactive)
MDA-MB-231
  GI50: > 100 µM (inactive)
MCF7
  GI50: > 100 µM (inactive)
SNB-19
  GI50: > 100 µM (inactive)
SK-OV-3
  GI50: > 100 µM (inactive)
SF-295
  GI50: > 100 µM (inactive)
SF-268
  GI50: > 100 µM (inactive)
SW-620
  GI50: > 100 µM (inactive)
TK-10
  GI50: > 100 µM (inactive)
T47D
  GI50: 23.6 µM (inactive)
BT-549
  GI50: > 100 µM (inactive)
ACHN
  GI50: > 100 µM (inactive)
HCC 2998
  GI50: > 100 µM (inactive)
HCT-15
  GI50: > 100 µM
UO-31
  GI50: 54.7 µM (inactive)
HOP-62
  GI50: > 100 µM (inactive)
OVCAR-5
  GI50: > 100 µM (inactive)
K562
  GI50: > 100 µM (inactive)
KM12
  GI50: 5.31 µM (inactive)
UACC-62
  GI50: > 100 µM (inactive)
NCI-H226
  GI50: > 100 µM (inactive)
M14
  GI50: > 100 µM (inactive)

## COC1(OC)CC(CO)(COc2cc(Cl)nc(N)n2)C1
OVCAR-8
  GI50: > 100 µM (inactive)
SNB-75
  GI50: > 100 µM (inactive)
HCT-116
  GI50: > 100 µM (inactive)
OVCAR-4
  GI50: > 100 µM (inactive)
NCI-H460
  GI50: > 100 µM (inactive)
RXF 393
  GI50: > 100 µM (inactive)
SF-539
  GI50: > 100 µM (inactive)
IGROV-1
  GI50: > 100 µM (inactive)
NCI-H522
  GI50: > 100 µM (inactive)
SK-MEL-28
  GI50: > 100 µM (inactive)
Hs-578T
  GI50: > 100 µM (inactive)
DU-145
  GI50: > 100 µM (inactive)
EKVX
  GI50: > 100 µM (inactive)
HOP-92
  GI50: > 100 µM (inactive)
786-0
  GI50: > 100 µM (inactive)
MOLT-4
  GI50: > 100 µM (inactive)
UACC-257
  GI50: > 100 µM (inactive)
HT-29
  GI50: > 100 µM (inactive)
CAKI-1
  GI50: > 100 µM (inactive)
A549
  GI50: > 100 µM (inactive)
SK-MEL-2
  GI50: > 100 µM (inactive)
NCI-H23
  GI50: > 100 µM (inactive)
CCRF-CEM
  GI50: > 100 µM (inactive)
MDA-N
  GI50: > 100 µM (inactive)
PC-3
  GI50: > 100 µM (inactive)
SN12C
  GI50: > 100 µM (inactive)
U-251
  GI50: > 100 µM (inactive)
SK-MEL-5
  GI50: > 100 µM (inactive)
MDA-MB-435
  GI50: > 100 µM (inactive)
LOX IMVI
  GI50: > 100 µM (inactive)
OVCAR-3
  GI50: > 100 µM (inactive)
Malme-3M
  GI50: > 100 µM (inactive)
COLO 205
  GI50: > 100 µM (inactive)
NCI/ADR-RES
  GI50: > 100 µM (inactive)
MDA-MB-231
  GI50: > 100 µM (inactive)
MCF7
  GI50: > 100 µM (inactive)
SNB-19
  GI50: > 100 µM (inactive)
SK-OV-3
  GI50: > 100 µM (inactive)
SF-295
  GI50: > 100 µM (inactive)
SF-268
  GI50: > 100 µM (inactive)
SW-620
  GI50: > 100 µM (inactive)
TK-10
  GI50: > 100 µM (inactive)
T47D
  GI50: > 100 µM (inactive)
BT-549
  GI50: > 100 µM (inactive)
ACHN
  GI50: > 100 µM (inactive)
HCC 2998
  GI50: > 100 µM (inactive)
HCT-15
  GI50: > 100 µM
UO-31
  GI50: > 100 µM (inactive)
HOP-62
  GI50: > 100 µM (inactive)
OVCAR-5
  GI50: > 100 µM (inactive)
K562
  GI50: > 100 µM (inactive)
KM12
  GI50: > 100 µM (inactive)
UACC-62
  GI50: > 100 µM (inactive)
NCI-H226
  GI50: > 100 µM (inactive)

## NN=C(S)Nc1cccc(Cl)c1
OVCAR-8
  GI50: 81.5 µM (inactive)
SNB-75
  GI50: > 100 µM (inactive)
HCT-116
  GI50: 36.3 µM (inactive)
OVCAR-4
  GI50: 39.9 µM (inactive)
NCI-H460
  GI50: 64.1 µM (inactive)
RXF 393
  GI50: > 100 µM (inactive)
SF-539
  GI50: > 100 µM (inactive)
IGROV-1
  GI50: > 100 µM (inactive)
NCI-H522
  GI50: 95.9 µM (inactive)
SK-MEL-28
  GI50: > 100 µM (inactive)
Hs-578T
  GI50: > 100 µM (inactive)
DU-145
  GI50: > 100 µM (inactive)
EKVX
  GI50: > 100 µM (inactive)
786-0
  GI50: > 100 µM (inactive)
MOLT-4
  GI50: 35.4 µM (inactive)
UACC-257
  GI50: > 100 µM (inactive)
A498
  GI50: > 100 µM (inactive)
HT-29
  GI50: 37.4 µM (inactive)
CAKI-1
  GI50: > 100 µM (inactive)
A549
  GI50: > 100 µM (inactive)
SK-MEL-2
  GI50: 79.4 µM (inactive)
HL-60
  GI50: > 100 µM (inactive)
NCI-H23
  GI50: > 100 µM (inactive)
CCRF-CEM
  GI50: 25.8 µM (inactive)
MDA-N
  GI50: > 100 µM (inactive)
PC-3
  GI50: 48.2 µM (inactive)
SN12C
  GI50: 94.4 µM (inactive)
U-251
  GI50: > 100 µM (inactive)
RPMI-8226
  GI50: > 100 µM (inactive)
SK-MEL-5
  GI50: > 100 µM (inactive)
MDA-MB-435
  GI50: 83.6 µM (inactive)
LOX IMVI
  GI50: > 100 µM (inactive)
OVCAR-3
  GI50: 29.3 µM (inactive)
Malme-3M
  GI50: > 100 µM (inactive)
COLO 205
  GI50: 89.7 µM (inactive)
NCI/ADR-RES
  GI50: 53.5 µM (inactive)
MDA-MB-231
  GI50: > 100 µM (inactive)
MCF7
  GI50: > 100 µM (inactive)
SNB-19
  GI50: > 100 µM (inactive)
SK-OV-3
  GI50: > 100 µM (inactive)
SF-295
  GI50: 69.2 µM (inactive)
SF-268
  GI50: > 100 µM (inactive)
SW-620
  GI50: > 100 µM (inactive)
TK-10
  GI50: > 100 µM (inactive)
T47D
  GI50: 74.8 µM (inactive)
BT-549
  GI50: > 100 µM (inactive)
ACHN
  GI50: > 100 µM (inactive)
HCC 2998
  GI50: 64.7 µM (inactive)
HCT-15
  GI50: 48.2 µM
UO-31
  GI50: > 100 µM (inactive)
HOP-62
  GI50: > 100 µM (inactive)
OVCAR-5
  GI50: > 100 µM (inactive)
K562
  GI50: 36.6 µM (inactive)
KM12
  GI50: 82 µM (inactive)
UACC-62
  GI50: > 100 µM (inactive)
M14
  GI50: 88.7 µM (inactive)
